Laboratory results from patent publication US8604044B2, “Quinazoline based EGFR inhibitors containing a zinc binding moiety” (Curis, Inc., priority 2006, dated 2013).

Tests used:
HDAC = HDAC fluorimetric assay (HDAC enzymatic activity, HeLa nuclear extract); type: biochemical; settings: for IC50: HeLa nuclear extract, read-out: HDAC IC50 grading
Procedure: HDAC inhibitors were screened using an HDAC fluorimetric assay kit (AK-500, Biomol, Plymouth Meeting, Pa.).
Each assay was setup as follows: Defrosted all kit components and kept on ice until use. […] Prepared dilutions of Trichostatin A (TSA, positive control) and tested compounds in assay buffer (5× of final concentration). Diluted Fluor de Lys™ Substrate in assay buffer to 100 uM (50 fold=2× final). Diluted Fluor de Lys™ developer concentrate 20-fold (e.g. 50 μl plus 950 μl Assay Buffer) in cold assay buffer. Second, diluted the 0.2 mM Trichostatin A 100-fold in the 1× Developer (e.g. 10 μl in 1 ml; final Trichostatin A concentration in the 1× Developer=2 μM; final concentration after addition to HDAC/Substrate reaction=1 μM). Added Assay buffer, diluted trichostatin A or test inhibitor to appropriate wells of the microtiter plate. Added diluted HeLa extract or other HDAC sample to all wells except for negative controls.

human EGFR = biological target: T1, human EGFR (Homo sapiens, UniProt P00533); assay: HTScan EGF Receptor Kinase Assay; type: biochemical; settings: for IC50: read-out: EGFR IC50 grading
T1 construct: human EGFR (His672-Ala1210); purchased Cell Signaling Technologies; host or cells: baculovirus expression system
T1 sequence (P00533 672-1210): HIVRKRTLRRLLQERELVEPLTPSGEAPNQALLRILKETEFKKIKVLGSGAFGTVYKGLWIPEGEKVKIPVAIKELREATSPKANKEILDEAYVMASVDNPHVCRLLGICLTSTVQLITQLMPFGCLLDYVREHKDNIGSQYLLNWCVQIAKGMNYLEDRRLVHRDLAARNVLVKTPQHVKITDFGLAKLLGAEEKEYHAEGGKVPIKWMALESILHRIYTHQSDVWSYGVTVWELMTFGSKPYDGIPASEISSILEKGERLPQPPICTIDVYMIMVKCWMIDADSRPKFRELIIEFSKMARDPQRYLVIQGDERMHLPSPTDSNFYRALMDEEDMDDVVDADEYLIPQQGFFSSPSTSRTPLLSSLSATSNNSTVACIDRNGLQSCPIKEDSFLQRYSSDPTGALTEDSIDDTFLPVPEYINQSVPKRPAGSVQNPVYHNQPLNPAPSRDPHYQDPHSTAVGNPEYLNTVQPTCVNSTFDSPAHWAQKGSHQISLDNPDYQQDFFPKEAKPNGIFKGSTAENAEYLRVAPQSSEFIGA
Procedure: The ability of compounds to inhibit receptor kinase (EGFR) activity was assayed using HTScan™ EGF Receptor Kinase Assay Kits (Cell Signaling Technologies, Danvers, Mass.). […] The protein was purified by one-step affinity chromatography using glutathione-agarose.
Immediately transfer enzyme from −80° C. to ice. Allowed enzyme to thaw on ice. […] Returned immediately to ice. […] Incubated reaction plate at room temperature for 30 minutes. […] Added 100 μl/well primary antibody. Incubated at room temperature for 60 minutes. […] Added 100 μl/well diluted antibody. Incubated at room temperature for 30 minutes. […] Incubated at room temperature for 5 minutes.

HER2 = biological target: T2, HER2 (Homo sapiens, UniProt P04626); assay: Radioisotope assay for HER2; type: biochemical; settings: read-out: HER2/ErB2 IC50 grading
T2 construct: human HER2 amino acids 679-1255; host or cells: baculovirus in Sf9 insect cells
T2 sequence (P04626 679-1255): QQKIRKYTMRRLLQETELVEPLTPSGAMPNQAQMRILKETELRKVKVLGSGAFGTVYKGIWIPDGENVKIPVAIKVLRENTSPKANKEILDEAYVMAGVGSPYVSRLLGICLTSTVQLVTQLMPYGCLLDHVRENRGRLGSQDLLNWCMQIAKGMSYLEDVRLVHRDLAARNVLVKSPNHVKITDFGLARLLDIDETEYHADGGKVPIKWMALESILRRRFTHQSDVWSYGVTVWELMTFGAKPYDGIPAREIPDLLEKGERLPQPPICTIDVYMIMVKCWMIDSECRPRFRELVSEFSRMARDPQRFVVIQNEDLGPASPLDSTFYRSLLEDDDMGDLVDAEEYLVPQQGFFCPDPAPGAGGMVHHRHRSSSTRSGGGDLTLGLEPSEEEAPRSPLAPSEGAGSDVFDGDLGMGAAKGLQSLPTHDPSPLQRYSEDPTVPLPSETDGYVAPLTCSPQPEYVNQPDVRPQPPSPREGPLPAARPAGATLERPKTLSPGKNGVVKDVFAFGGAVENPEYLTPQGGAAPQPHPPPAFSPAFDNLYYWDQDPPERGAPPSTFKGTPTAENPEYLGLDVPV
Procedure: Protocol for Radioisotope Assay for HER2
10 nM HER2 and 0.1 mg/ml polyEY were placed in the reaction buffer and 2 mM MnCl2, 1 μM ATP and 1% DMSO final were added. The reaction mixture was incubated for 2 hours at room temperature.
MW=91.6 kDa. […] Enzyme is in 25 mM Tris-HCl, pH 8.0, 100 mM NaCl, 0.05% Tween-20, 50% glycerol, 10 mM reduced glutathione, and 3 mM DTT.

A549 NSCLC Xenograft = assay: A549 NSCLC xenograft model; type: in vivo, mice; settings: FIG. 11B
Procedure: 1-10×10^6 human cancer cells were implanted subcutaneously to the athymic (nu/nu) mice. When the tumors reached about 100 mm^3 in volume, the mice were treated with the compound by tail vein infusion. Routinely 5 groups (8-12 mice per group) are needed for a typical efficacy study, including one negative control, one positive control, and three testing groups for 3 dose levels of the same compound. Usually a 7-7-5 (on-off-on) regimen was used for one typical study. The tumor size was measured with an electronic caliper and body weight measured with a scale twice weekly. The tumors were removed from euthanized mice at the end of the study. One half of each tumor was frozen in dry ice and stored at −80° C. for PK or Western blot analysis. The other half was fixed with formalin. The fixed tissues were processed, embedded in paraffin and sectioned for immunohistochemistry staining.

Compound | IC50 (HDAC) [nM] | IC50 (HER2) [nM] | melting point | IC50 (human EGFR) [nM] | further results
COc1cc2ncnc(Nc3ccc(F)c(Cl)c3)c2cc1OCCCCCCC(=O)NO [Compound 6, 7-(4-(3-Chloro-4-fluorophenylamino)-7-methoxyquinazolin-6-yloxy)-N-hydroxyheptanamide] | < 100 | < 100 | – | – | activity in HDAC enzyme assay compared with SAHA (HDAC; FIG. 1): more active; activity in EFGR enzyme assay compared with erlotinib (human EGFR; FIG. 1): more active
O=C(CCCOc1ccc2ncnc(Nc3ccc(F)c(Cl)c3)c2c1)NO [Compound 15, 4-(4-(3-chloro-4-fluorophenylamino)quinazolin-6-yloxy)-N-Hydroxybutanamide] | < 100 | – | 128 to 132 °C | – | –
O=C(CCCCOc1ccc2ncnc(Nc3ccc(F)c(Cl)c3)c2c1)NO [Compound 16, 5-(4-(3-chloro-4-fluorophenylamino)quinazolin-6-yloxy)-N-hydroxypentanamide] | 100 to 1000 | – | 85.9 °C | – | –
C#Cc1cccc(Nc2ncnc3ccc(OCC(=O)NO)cc23)c1 [Compound 19, 2-(4-(3-ethynylphenylamino)quinazolin-6-yloxy)-N-hydroxyacetamide] | > 10000 | – | 189 to 191 °C | – | –
C#Cc1cccc(Nc2ncnc3ccc(OCCCC(=O)NO)cc23)c1 [Compound 21, 4-(4-(3-ethynylphenylamino)quinazolin-6-yloxy)-N-hydroxybutanamide] | 1000 to 10000 | – | 182 to 186 °C | – | –
C#Cc1cccc(Nc2ncnc3ccc(OCCCCCC(=O)NO)cc23)c1 [Compound 23, 6-(4-(3-ethynylphenylamino)quinazolin-6-yloxy)-N-hydroxyhexanamide] | < 100 | – | 176 to 182 °C | – | –
COc1cc2ncnc(N[C@H](C)c3ccccc3)c2cc1OCCCCCCC(=O)NO [Compound 79, (R)—N-hydroxy-7-(7-methoxy-4-(1-phenylethylamino)quinazolin-6-yloxy)heptanamide] | < 100 | 100 to 1000 | – | – | –
COc1cc2ncnc(N[C@H](C)c3ccc(F)cc3)c2cc1OCCCCCCC(=O)NO [Compound 81, (R)-7-(4-(1-(4-fluorophenyl)ethylamino)-7-methoxyquinazolin-6-yloxy)-N-hydroxyheptanamide] | 100 to 1000 | – | 118.2 to 144.3 °C | – | –
COc1cc2ncnc(NCc3ccccc3)c2cc1OCCCCCCC(=O)NO [Compound 85, 7-(4-(Benzylamino)-7-methoxyquinazolin-6-yloxy)-N-hydroxyheptanamide] | < 100 | 100 to 1000 | – | – | –
COc1cc2ncnc(NCc3ccc(F)c(Cl)c3)c2cc1OCCCCCCC(=O)NO [Compound 88, 7-(4-(3-chloro-4-fluorobenzylamino)-7-methoxyquinazolin-6-yloxy)-N-hydroxyheptanamide] | < 100 | 1000 to 10000 | 143.1 °C (dec.) | – | –
COc1cc2ncnc(Nc3ccc(F)c(Cl)c3)c2cc1OCCCCCCN(O)C(N)=O [Compound 102] | – | – | – | < 100 | –
COc1cc2ncnc(Nc3ccc(F)c(Cl)c3)c2cc1SCCCCC(=O)NO [Compound 151, 5-(4-(3-chloro-4-fluorophenylamino)-7-methoxyquinazolin-6-ylthio)-N-hydroxypentanamide] | – | < 100 | – | < 100 | –
COc1cc2ncnc(Nc3ccc(F)c(Cl)c3)c2cc1SCCCCCCC(=O)NO [Compound 155, 7-(4-(3-Chloro-4-fluorophenylamino)-7-methoxyquinazolin-6-ylthio)-N-hydroxyheptanamide] | – | < 100 | – | < 100 | –
COc1cc2c(Nc3ccc(F)c(Cl)c3)ncnc2cc1OCCCCCCC(=O)NO [Compound 161, 7-(4-(3-chloro-4-fluorophenylamino)-6-methoxyquinazolin-7-yloxy)-N-hydroxyheptanamide] | < 100 | 100 to 1000 | – | – | –
C#Cc1cccc(Nc2ncnc3cc(OCCCCCCC(=O)NO)c(OC)cc23)c1 [Compound 162, 7-(4-(3-ethynylphenylamino)-6-methoxyquinazolin-7-yloxy)-N-hydroxyheptanamide] | < 100 | 100 to 1000 | – | < 100 | –
COCCOc1cc2c(Nc3ccc(F)c(Cl)c3)ncnc2cc1OCCCCCCC(=O)NO [Compound 167, 7-(4-(3-chloro-4-fluorophenylamino)-6-(2-methoxyethoxy)quinazolin-7-yloxy)-N-hydroxyheptanamide] | < 100 | 100 to 1000 | – | < 100 | –
C#Cc1cccc(Nc2ncnc3cc(OCCCCCCC(=O)NO)c(OCCOC)cc23)c1 [Compound 168, 7-(4-(3-ethynylphenylamino)-6-(2-methoxyethoxy)quinazolin-7-yloxy)-N-hydroxyheptanamide] | < 100 | 100 to 1000 | – | < 100 | –
O=C(CCNCc1ccc(-c2ccc3ncnc(Nc4ccc(OCc5cccc(F)c5)c(Cl)c4)c3c2)o1)NO [Compound 174, 3-((5-(4-(3-Chloro-4-(3-fluorobenzyloxy)phenylamino)quinazolin-6-yl)furan-2-yl)methylamino)-N-hydroxypropanamide] | > 10000 | – | 170 °C | – | –
O=C(CCCCCNCc1ccc(-c2ccc3ncnc(Nc4ccc(OCc5cccc(F)c5)c(Cl)c4)c3c2)o1)NO [Compound 177, 6-((5-(4-(3-chloro-4-(3-fluorobenzyloxy)phenylamino)quinazolin-6-yl)furan-2-yl)methylamino)-N-hydroxyhexanamide] | 100 to 1000 | < 100 | 121 °C | < 100 | –
O=C(CCCCCCNCc1ccc(-c2ccc3ncnc(Nc4ccc(OCc5cccc(F)c5)c(Cl)c4)c3c2)o1)NO [Compound 178, 7-((5-(4-(3-chloro-4-(3-fluorobenzyloxy)phenylamino)quinazolin-6-yl)furan-2-yl)methylamino)-N-hydroxyheptanamide] | 100 to 1000 | – | 120 °C | – | –
O=C(CCCCCCOc1ccc2ncnc(Nc3ccc(OCc4cccc(F)c4)c(Cl)c3)c2c1)NO [Compound 198, 7-(4-(3-chloro-4-(3-fluorobenzyloxy)phenylamino)quinazolin-6-yloxy)-N-hydroxyheptanamide] | < 100 | < 100 | – | < 100 | –
COc1cc2ncnc(Nc3ccc(OCc4cccc(F)c4)c(Cl)c3)c2cc1OCCCCCCC(=O)NO [Compound 199, 7-(4-(3-chloro-4-(3-fluorobenzyloxy)phenylamino)-7-methoxyquinazolin-6-yloxy)-N-hydroxyheptanamide] | < 100 | < 100 | – | < 100 | –
COCCOc1cc2ncnc(Nc3ccc(OCc4cccc(F)c4)c(Cl)c3)c2cc1OCCCCCCC(=O)NO [Compound 200] | < 100 | < 100 | – | < 100 | –
O=C(CCCCCCCNCc1ccc(-c2ccc3ncnc(Nc4ccc(OCc5cccc(F)c5)c(Cl)c4)c3c2)o1)NO [Compound 201] | 100 to 1000 | < 100 | – | < 100 | –
C#Cc1cc(Nc2ncnc3cc(OC)c(OCCCCCCC(=O)NO)cc23)ccc1O [Compound 206] | < 100 | < 100 | – | < 100 | –
C#Cc1cccc(Nc2ncnc3cc(O)c(OCCCCCCC(=O)NO)cc23)c1 [Compound 207] | – | < 100 | – | < 100 | –
C#Cc1cccc(Nc2ncnc3cc(OCCOC)c(OCCOC)cc23)c1 [Erlotinib] | – | – | – | – | effect on tumor size as compared to control (A549 NSCLC Xenograft): did not significantly affect tumor size
